How the values were obtained:
Assay in all cases: Test E greenhouse herbicide test, pre- and postemergence
Assay type in all cases: in vivo
[1] = tested on: arrowleaf sida (Sida rhombifolia)
Procedure, shortened: (§1)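 Seedlings reaching 2–18 cm (1- to 4-leaf stage) received foliar treatment, while seeds in silt loam received a soil surface spray; the vehicle in each case was a non-phytotoxic solvent mixture including surfactant. Visual scoring versus controls followed 14–21 d later on a 0–100 scale.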

[2] = tested on: barnyardgrass (Echinochloa crus-galli)
Procedure, shortened: as §1

[3] = tested on: corn (Zea mays)
Procedure, shortened: as §1

[4] = tested on: crabgrass, Brazilian (Brazilian crabgrass, Digitaria horizontalis)
Procedure, shortened: as §1

[5] = tested on: dayflower (Virginia (VA) dayflower, Commelina virginica)
Procedure, shortened: as §1

[6] = tested on: field bindweed (Convolvulus arvensis)
Procedure, shortened: as §1

[7] = tested on: foxtail, green (green foxtail, Setaria viridis); conditions: Preemergence
Procedure, shortened: as §1

[8] = tested on: goosegrass (Eleusine indica); conditions: Preemergence
Procedure, shortened: as §1

[9] = tested on: horseweed (Conyza canadensis); conditions: Postemergence
Procedure, shortened: as §1

[10] = tested on: lambsquarters (Chenopodium album); conditions: Preemergence
Procedure, shortened: as §1

[11] = tested on: nightshade (eastern black nightshade, Solanum ptycanthum); conditions: Preemergence
Procedure, shortened: as §1

[12] = tested on: panicum, fall (fall panicum, Panicum dichotomiflorum)
Procedure, shortened: as §1

[13] = tested on: pigweed, palmer (palmer pigweed, Amaranthus palmeri)
Procedure, shortened: as §1

[14] = tested on: ragweed (common ragweed, Ambrosia elatior)
Procedure, shortened: as §1

[15] = tested on: soybean (Glycine max)
Procedure, shortened: as §1

[16] = tested on: surinam grass (Brachiaria decumbens); conditions: Preemergence
Procedure, shortened: as §1

[17] = 62 g ai/ha, Postemergence, scale 0 to 100 (0 no effect, 100 complete control)
[18] = 62 g ai/ha, Preemergence, scale 0 to 100 (0 no effect, 100 complete control)
[19] = 125 g ai/ha, Postemergence, scale 0 to 100 (0 no effect, 100 complete control)
[20] = 125 g ai/ha, Preemergence, scale 0 to 100 (0 no effect, 100 complete control)
[21] = 250 g ai/ha, Postemergence, scale 0 to 100 (0 no effect, 100 complete control)
[22] = Postemergence, 31 g ai/ha, visual, scale 0 no effect to 100 complete control
[23] = Preemergence, 31 g ai/ha, scale 0 to 100, 0 no effect, 100 complete control
[24] = Preemergence, 250 g ai/ha, visual, scale 0 no effect to 100 complete control
[25] = 62 g ai/ha, scale 0 to 100 (0 no effect, 100 complete control)
[26] = 125 g ai/ha, scale 0 to 100 (0 no effect, 100 complete control)
[27] = 31 g ai/ha, scale 0 to 100, 0 no effect, 100 complete control
[28] = 250 g ai/ha, visual, scale 0 no effect to 100 complete control

CCOC(=O)Oc1c(C)nn(C)c(=O)c1-c1c(C)sc2c(C)cc(C)cc12 [Compound 83]
0: Plant response rating, Barnyardgrass [2, 23] | Plant response rating, Corn [3, 17] | Plant response rating, Corn [3, 18] | Plant response rating, Corn [3, 19] | Plant response rating, Corn [3, 20] | Plant response rating, Corn [3, 22] | Plant response rating, Corn [3, 23] | Plant response rating, Corn [3, 24] | Plant response rating, Crabgrass, Brazil [4, 23] | Plant response rating, Dayflower, VA [5, 23] | Plant response rating, Field Bindweed [6, 23] | Plant response rating, Foxtail, Green [7, 27] | Plant response rating, Goosegrass [8, 25] | Plant response rating, Goosegrass [8, 27] | Plant response rating, Pigweed, Palmer [13, 23] | Plant response rating, Soybean [15, 18] | Plant response rating, Soybean [15, 19] | Plant response rating, Soybean [15, 20] | Plant response rating, Soybean [15, 22] | Plant response rating, Soybean [15, 23] | Plant response rating, Soybean [15, 24]
15: Plant response rating, Arrowleaf Sida [1, 23] | Plant response rating, Soybean [15, 21]
30: Plant response rating, Barnyardgrass [2, 18] | Plant response rating, Crabgrass, Brazil [4, 22]
75: Plant response rating, Barnyardgrass [2, 24] | Plant response rating, Dayflower, VA [5, 19] | Plant response rating, Field Bindweed [6, 21] | Plant response rating, Horseweed ([9]; 31 g ai/ha, visual, scale 0 no effect to 100 complete control) | Plant response rating, Ragweed [14, 18] | Plant response rating, Ragweed [14, 21]
90: Plant response rating, Horseweed ([9]; 250 g ai/ha, scale 0 to 100 (0 no effect, 100 complete control)) | Plant response rating, Panicum, Fall [12, 21] | Plant response rating, Panicum, Fall [12, 23]
20: Plant response rating, Pigweed, Palmer [13, 18]
98: Plant response rating, Lambsquarters [10, 25] | Plant response rating, Panicum, Fall [12, 24] | Plant response rating, Ragweed [14, 24]
50: Plant response rating, Arrowleaf Sida [1, 17] | Plant response rating, Arrowleaf Sida [1, 22] | Plant response rating, Barnyardgrass [2, 17] | Plant response rating, Barnyardgrass [2, 21] | Plant response rating, Crabgrass, Brazil [4, 19] | Plant response rating, Crabgrass, Brazil [4, 20] | Plant response rating, Crabgrass, Brazil [4, 21] | Plant response rating, Dayflower, VA [5, 22] | Plant response rating, Nightshade [11, 25] | Plant response rating, Pigweed, Palmer [13, 19] | Plant response rating, Pigweed, Palmer [13, 20] | Plant response rating, Ragweed [14, 17]
100: Plant response rating, Field Bindweed [6, 24] | Plant response rating, Lambsquarters [10, 26] | Plant response rating, Lambsquarters [10, 27] | Plant response rating, Lambsquarters [10, 28] | Plant response rating, Nightshade [11, 26] | Plant response rating, Nightshade [11, 28] | Plant response rating, Panicum, Fall [12, 20]
80: Plant response rating, Crabgrass, Brazil [4, 24] | Plant response rating, Horseweed [9, 25] | Plant response rating, Panicum, Fall [12, 19] | Plant response rating, Pigweed, Palmer [13, 24]
95: Plant response rating, Foxtail, Green [7, 26] | Plant response rating, Panicum, Fall [12, 18] | Plant response rating, Ragweed [14, 20] | Plant response rating, Surinam Grass [16, 28]
40: Plant response rating, Barnyardgrass [2, 19] | Plant response rating, Barnyardgrass [2, 22] | Plant response rating, Crabgrass, Brazil [4, 17] | Plant response rating, Foxtail, Green [7, 25] | Plant response rating, Pigweed, Palmer [13, 17] | Plant response rating, Pigweed, Palmer [13, 22]
10: Plant response rating, Corn [3, 21] | Plant response rating, Crabgrass, Brazil [4, 18] | Plant response rating, Dayflower, VA [5, 18]
70: Plant response rating, Dayflower, VA [5, 21] | Plant response rating, Field Bindweed [6, 17] | Plant response rating, Field Bindweed [6, 19] | Plant response rating, Foxtail, Green [7, 28] | Plant response rating, Panicum, Fall [12, 17] | Plant response rating, Panicum, Fall [12, 22] | Plant response rating, Ragweed [14, 19] | Plant response rating, Ragweed [14, 23]
60: Plant response rating, Arrowleaf Sida [1, 19] | Plant response rating, Arrowleaf Sida [1, 21] | Plant response rating, Dayflower, VA [5, 17] | Plant response rating, Field Bindweed [6, 22] | Plant response rating, Pigweed, Palmer [13, 21] | Plant response rating, Ragweed [14, 22] | Plant response rating, Surinam Grass [16, 25]
25: Plant response rating, Arrowleaf Sida [1, 18] | Plant response rating, Dayflower, VA [5, 20] | Plant response rating, Goosegrass [8, 28]
85: Plant response rating, Horseweed [9, 26] | Plant response rating, Surinam Grass [16, 26]
5: Plant response rating, Field Bindweed [6, 18] | Plant response rating, Goosegrass [8, 26]
35: Plant response rating, Arrowleaf Sida [1, 20] | Plant response rating, Barnyardgrass [2, 20] | Plant response rating, Field Bindweed [6, 20] | Plant response rating, Nightshade [11, 27]
65: Plant response rating, Arrowleaf Sida [1, 24] | Plant response rating, Dayflower, VA [5, 24] | Plant response rating, Surinam Grass [16, 27]

From US10597388B2, “Pyridazinone herbicides” (FMC CORPORATION, priority 2014, dated 2020)
